Key:
[1] = system: Syrian hamsters (Mesocricetus auratus); assay: Reentrainment of wheel-running activity rhythm after an abrupt 6-h advance of the LD cycle; format: in vivo; settings: for time to resynchronize to the new LD cycle: saline 12±2 days; for decrease in reentrainment time: FIG. 1D
Method: Animals. Male adult (3-4 month-old) Syrian hamsters (Mesocricetus auratus) were raised and maintained in a 14:10 h light-dark cycle (L:D, lights on at 0600 h), with food and water ad libitum and room temperature set at 20±2° C. All animal procedures were performed in strict accordance with NIH rules for animal care and maintenance. Activity rhythm recording. For the resynchronization experiment, animals were transferred to individual cages equipped with a running wheel (17 cm. diameter) and with light intensity averaging 200 lux at cage level. Running-wheel activity was continuously recorded for each animal using a digital system that registers wheel revolutions and stored at 5-min intervals for further analysis. Animals were initially maintained under a 14:10-h is light-dark cycle (LD, lights on at 1900 h) for at least 10 days. Then, hamsters were subjected to an abrupt 6-h advance in the phase of the LD cycle. On the day of the phase shift, intraperitoneal (i.p) injection of sildenafil or vehicle was given at zeitgeber time (ZT) 18, defining ZT 12 as the time of lights off. Time for reentrainment to the new LD cycle was defined as the time it took for each animal to adjust its activity onset with the new cycle (onset at the new time of lights off±15 minutes). Daily onsets of activity were determined. Briefly, activity onset was defined as the 10 min-bin that contained at least 80 wheel revolutions, followed by another bin of at least another 80 wheel revolutions within 40 min. The effect of 1, 3.5 or 10 mg/kg sildenafil—extracted from commercial preparations according to Francis et al. (Int. J. Impotence Res. 2003 15: 369-372) was tested at ZT 14 or 18 in comparison to vehicle administration (sterile saline).

[2] = system: Syrian hamsters (Mesocricetus auratus); assay: Light-induced phase advances of activity rhythm, 15-min 50 lux light pulse at CT 18 in constant dark; format: in vivo; settings: for light-induced phase advance: vehicle 76±23 min
Method: Animals. Male adult (3-4 month-old) Syrian hamsters (Mesocricetus auratus) were raised and maintained in a 14:10 h light-dark cycle (L:D, lights on at 0600 h), with food and water ad libitum and room temperature set at 20±2° C. All animal procedures were performed in strict accordance with NIH rules for animal care and maintenance.
For light pulse experiments, hamsters were placed in constant dark (DD) conditions, and exposed to a 15-min white light pulse of 50 lux at either circadian time (CT) 14 or 18 (with CT 12 defined as the onset of wheel running activity in DD). Phase shifts were calculated by fitting a line (by three observers masked to the experimental procedure) through activity onsets 5 days prior and between 5 and 15 days after light exposure and then comparing these two lines on the day of the light pulse. […]

[3] = system: Syrian hamsters (Mesocricetus auratus); assay: Reentrainment of wheel-running activity rhythm after a 6-hr phase delay of the LD cycle; format: in vivo; settings: 3.5 mg/kg i.p. at ZT 14; 6-hr delay; FIG. 3A
Method: (A) Effect on reentrainment of wheel-running activity rhythm following a 6-hr phase delay of the LD cycle. Double-plotted actograms of hamster wheel-running activity showing reentrainment to a 6-hr delay of the LD cycle after the injection of vehicle (top) and sildenafil (3.5 mg/kg, i.p., middle). Injections of either saline or sildenafil were given at ZT 14 on the day of the cycle change (white star). Bottom: mean±S.E.M. (n=4 animals per group) of days needed for reentrainment. (B) Effect of sildenafil on light-induced phase delays following light pulses at CT 14. Representative actograms showing vehicle (top) or sildenafil (middle) injections. Bottom graph: Mean±S.E.M. (n=4 animals per group). Animals. Male adult (3-4 month-old) Syrian hamsters (Mesocricetus auratus) were raised and maintained in a 14:10 h light-dark cycle (L:D, lights on at 0600 h), with food and water ad libitum and room temperature set at 20±2° C. All animal procedures were performed in strict accordance with NIH rules for animal care and maintenance. Activity rhythm recording. […] Running-wheel activity was continuously recorded for each animal using a digital system that registers wheel revolutions and stored at 5-min intervals for further analysis. […] Daily onsets of activity were determined. […]

[4] = system: Syrian hamsters (Mesocricetus auratus); assay: Light-induced phase delays of activity rhythm, light pulse at CT 14; format: in vivo; settings: FIG. 3B
Method: (A) Effect on reentrainment of wheel-running activity rhythm following a 6-hr phase delay of the LD cycle. Double-plotted actograms of hamster wheel-running activity showing reentrainment to a 6-hr delay of the LD cycle after the injection of vehicle (top) and sildenafil (3.5 mg/kg, i.p., middle). Injections of either saline or sildenafil were given at ZT 14 on the day of the cycle change (white star). Bottom: mean±S.E.M. (n=4 animals per group) of days needed for reentrainment. (B) Effect of sildenafil on light-induced phase delays following light pulses at CT 14. Representative actograms showing vehicle (top) or sildenafil (middle) injections. Bottom graph: Mean±S.E.M. (n=4 animals per group). Animals. Male adult (3-4 month-old) Syrian hamsters (Mesocricetus auratus) were raised and maintained in a 14:10 h light-dark cycle (L:D, lights on at 0600 h), with food and water ad libitum and room temperature set at 20±2° C. All animal procedures were performed in strict accordance with NIH rules for animal care and maintenance. […] Phase shifts were calculated by fitting a line (by three observers masked to the experimental procedure) through activity onsets 5 days prior and between 5 and 15 days after light exposure and then comparing these two lines on the day of the light pulse. […]

[5] = system: cGMP levels in the hamster SCN; assay: Determination of cGMP levels in the SCN by direct enzyme immunoassay; format: in vivo; settings: n=4
Method: Determination of cGMP levels. Cyclic GMP content was determined using a direct enzyme immunoassay kit (Correlate-EIA #900-014, Assay Designs, Ann Arbor, Mich.). Hamsters received an injection of sildenafil (3.5 mg/kg, i.p.) or vehicle (sterile saline solution) at CT 18 and were sacrificed by decapitation 45-90 min later. The SCN were quickly punched out and immediately frozen in liquid nitrogen in order to avoid endogenous cGMP degradation. Tissue was grounded to a fine powder under liquid nitrogen and then homogenized in 0.1 M HCI. The overnight acetylated format of the kit was used. […] In order to precisely compare the effect of sildenafil on cGMP levels, the use of other phosphodiesterase inhibitors, e.g., IBMX, was avoided.

[6] = system: Syrian hamsters (Mesocricetus auratus); assay: Observation of sildenafil-induced penile erections in treated hamsters; format: in vivo; settings: intermediate dose 3.5 mg/kg i.p.
rats = settings: i.p.; cited from earlier work

SMILES: CCCc1nn(C)c2c(=O)[nH]c(-c3cc(S(=O)(=O)N4CCN(C)CC4)ccc3OCC)nc12 [sildenafil, 5-[2-ethoxy-5-(4-methyl-1-piperazinylsulphonyl)phenyl]-1-methyl-3-n-propyl-1,6-dihydro-7H-pyrazolo[4,3-d]pyrimidin-7-one]
- time to resynchronize to the new LD cycle ([1]; 1 mg/kg i.p. at ZT 18, p>0.05 vs. control): 9 ± 3 days
- decrease in reentrainment time ([1]; 1 mg/kg): 25%
- time to resynchronize to the new LD cycle ([1]; 3.5 mg/kg i.p. at ZT 18 on day of 6-h advance, mean±SD, six animals per group, p<0.05): 8 ± 1 days
- decrease in reentrainment time ([1]; 3.5 mg/kg): 33%
- time to resynchronize to the new LD cycle ([1]; 10 mg/kg i.p. at ZT 18, p<0.001 vs. control): 6 ± 2 days
- decrease in reentrainment time ([1]; 10 mg/kg): 50%
- light-induced phase advance ([2]; 3.5 mg/kg i.p. 45 min prior to light pulse at CT 18, mean±SD, p<0.05): 150.4 ± 64.8 min
- post-treatment circadian period ([2]; after light-induced phase advance): did not change
- light-induced phase advance ([2]; injection 90 min before light pulse at CT 18, not significantly different from controls): 123 ± 27 min
- effect on activity rhythms, drug alone ([2]; without light pulse): did not modify activity rhythms
- effect on reentrainment rates after a delay in the LD cycle [3]: did not affect
- effect on light-induced phase delays [4]: did not affect
- SCN cGMP levels ([5]; 3.5 mg/kg i.p. at CT 18, 45 minutes after injection, saline 0.37±0.20, control 0.29±0.15, mean±SD): 0.63±0.08 pmol cGMP/mg protein
- SCN cGMP levels ([5]; 90 min after injection, saline 0.26±0.16, no increase vs controls): 0.37±0.20 pmol cGMP/mg protein
- sildenafil-induced penile erections [6]: did not manifest the effects of sildenafil-induced penile erections
- optimal erectogenic dose (rats): 5 mg/kg/day
